Experimental data as given in US20230085307A1, “PYRIDAZINONE COMPOUND AND HERBICIDE” (NISSAN CHEMICAL CORPORATION, priority 2019, published 2023).

Key:
[1] = tested on: Japanese bulrush; assay: Test Example 1: herbicidal activity, application before weed generation under submerged conditions (Table 16, symbol B); format: in vivo, Japanese bulrush (Schoenoplectus juncoides); settings: amount of applied herbicide 320 g/ha
Procedure, shortened: (§1)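 Alluvial soil was flooded to 4 cm depth, weed seeds were sown mixed and 2.5-leaf rice seedlings were transplanted. On sowing day, the compound's emulsion, diluted in water to a set dose, was applied to the water surface. Plants grew at 25–30 °C and were scored 0–5 after three weeks.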

[2] = tested on: velvetleaf; assay: Test Example 5: herbicidal effect by foliage application, plastic box (Table 20, symbol M); format: in vivo, velvetleaf (Abutilon theophrasti); settings: foliage application, 320 g/ha, three weeks after application
Procedure, shortened: (§2)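 Sow seeds spot-wise in sterilized diluvial soil; cover with ~1.5 cm soil. Grow 14 days in greenhouse, 25° C. to 30° C. Spray foliage with emulsion diluted to predetermined amount. Rate effect after 3 weeks.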

[3] = tested on: southern crabgrass; assay: Test Example 4: herbicidal effect by soil treatment (Table 19, symbol F); format: in vivo, southern crabgrass (Digitaria ciliaris); settings: amount of applied herbicide 320 g/ha
Procedure, shortened: (§3)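 Applied as a water-diluted emulsion, the compound was sprayed onto soil covering newly sown seeds. Evaluation came three weeks after application, in a greenhouse held at 25° C. to 30° C.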

[4] = tested on: Italian ryegrass; assay: Test Example 5: herbicidal effect by foliage application, plastic box (Table 20, symbol K); format: in vivo, Italian ryegrass (Lolium multiflorum); settings: foliage application, 320 g/ha, three weeks after application
Procedure, shortened: as §2

[5] = tested on: green foxtail; assay: Test Example 4: herbicidal effect by soil treatment (Table 19, symbol G); format: in vivo, green foxtail (Setaria viridis); settings: amount of applied herbicide 320 g/ha
Procedure, shortened: as §3

[6] = tested on: blackgrass; assay: Test Example 4: herbicidal effect by soil treatment (Table 19, symbol J); format: in vivo, blackgrass (Alopecurus myosuroides); settings: amount of applied herbicide 320 g/ha
Procedure, shortened: as §3

[7] = tested on: rice flat sedge; assay: Test Example 3: herbicidal effect by foliage application, Wagner pot (Table 18, symbol E); format: in vivo, rice flat sedge (Cyperus iria); settings: 320 g/ha
Procedure, shortened: (§4)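 Plants were sown in alluvial soil held under 0.1–0.5 cm standing water and grown 14 days in a greenhouse at 25–30 °C. An emulsifiable formulation, water-diluted to the set dose, was then sprayed onto the foliage, and effects were scored three weeks later using previously defined criteria.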

[8] = tested on: late watergrass; assay: Test Example 1: herbicidal activity, application before weed generation under submerged conditions (Table 16, symbol A); format: in vivo, late watergrass (Echinochloa oryzicola); settings: amount of applied herbicide 320 g/ha
Procedure, shortened: as §1

[9] = tested on: green foxtail; assay: Test Example 5: herbicidal effect by foliage application, plastic box (Table 20, symbol G); format: in vivo, green foxtail (Setaria viridis); settings: foliage application, 320 g/ha, three weeks after application
Procedure, shortened: as §2

[10] = tested on: Chinese sprangletop; assay: Test Example 3: herbicidal effect by foliage application, Wagner pot (Table 18, symbol D); format: in vivo, chinese sprangletop (Leptochloa chinensis); settings: 320 g/ha
Procedure, shortened: as §4

[11] = tested on: windgrass; assay: Test Example 5: herbicidal effect by foliage application, plastic box (Table 20, symbol L); format: in vivo, windgrass (Apera spica-venti); settings: foliage application, 320 g/ha, three weeks after application
Procedure, shortened: as §2

[12] = tested on: persian speedwell; assay: Test Example 5: herbicidal effect by foliage application, plastic box (Table 20, symbol R); format: in vivo, Persian speedwell (Veronica persica); settings: foliage application, 320 g/ha, three weeks after application
Procedure, shortened: as §2

[13] = tested on: barnyard grass; assay: Test Example 3: herbicidal effect by foliage application, Wagner pot (Table 18, symbol H); format: in vivo, barnyard grass (Echinochloa crus-galli); settings: 320 g/ha
Procedure, shortened: as §4

[14] = tested on: redroot pigweed; assay: Test Example 4: herbicidal effect by soil treatment (Table 19, symbol N); format: in vivo, redroot pigweed (Amaranthus retroflexus); settings: amount of applied herbicide 320 g/ha
Procedure, shortened: as §3

[15] = tested on: redroot pigweed; assay: Test Example 5: herbicidal effect by foliage application, plastic box (Table 20, symbol N); format: in vivo, redroot pigweed (Amaranthus retroflexus); settings: foliage application, 320 g/ha, three weeks after application
Procedure, shortened: as §2

[16] = tested on: blackgrass; assay: Test Example 5: herbicidal effect by foliage application, plastic box (Table 20, symbol J); format: in vivo, blackgrass (Alopecurus myosuroides); settings: foliage application, 320 g/ha, three weeks after application
Procedure, shortened: as §2

[17] = tested on: lambsquarters; assay: Test Example 5: herbicidal effect by foliage application, plastic box (Table 20, symbol O); format: in vivo, lambsquarters (Chenopodium album); settings: foliage application, 320 g/ha, three weeks after application
Procedure, shortened: as §2

[18] = tested on: barnyard grass; assay: Test Example 5: herbicidal effect by foliage application, plastic box (Table 20, symbol H); format: in vivo, barnyard grass (Echinochloa crus-galli); settings: foliage application, 320 g/ha, three weeks after application
Procedure, shortened: as §2

SMILES: CCCC(=O)Oc1c(C)nn(C)c(=O)c1-c1c(-c2ccc(F)cc2OCC)sc2cc(OC)ccc12 [3-079]
- Herbicidal effect, B: Japanese bulrush [1]: 5 (Herbicidal rate of 90% or more (almost completely withered))
- M: velvetleaf, herbicidal effect grade [2]: 5 (Herbicidal rate of 90% or more (almost completely withered))
- F: southern crabgrass, herbicidal effect grade [3]: 4 (Herbicidal rate of 70% or more and less than 90%)
- K: Italian ryegrass, herbicidal effect grade [4]: 4 (Herbicidal rate of 70% or more and less than 90%)
- G: green foxtail, herbicidal effect grade [5]: 1 (Herbicidal rate of 5% or more and less than 20%)
- J: blackgrass, herbicidal effect grade [6]: 2 (Herbicidal rate of 20% or more and less than 40%)
- herbicidal effect on rice flat sedge (E) [7]: 5 (Herbicidal rate of 90% or more (almost completely withered))
- Herbicidal effect, A: late watergrass [8]: 5 (Herbicidal rate of 90% or more (almost completely withered))
- G: green foxtail, herbicidal effect grade [9]: 5 (Herbicidal rate of 90% or more (almost completely withered))
- herbicidal effect on Chinese sprangletop (D) [10]: 4 (Herbicidal rate of 70% or more and less than 90%)
- L: windgrass, herbicidal effect grade [11]: 5 (Herbicidal rate of 90% or more (almost completely withered))
- R: persian speedwell, herbicidal effect grade [12]: 5 (Herbicidal rate of 90% or more (almost completely withered))
- herbicidal effect on barnyard grass (H) [13]: 5 (Herbicidal rate of 90% or more (almost completely withered))
- N: redroot pigweed, herbicidal effect grade [14]: 4 (Herbicidal rate of 70% or more and less than 90%)
- N: redroot pigweed, herbicidal effect grade [15]: 4 (Herbicidal rate of 70% or more and less than 90%)
- J: blackgrass, herbicidal effect grade [16]: 4 (Herbicidal rate of 70% or more and less than 90%)
- O: lambsquarters, herbicidal effect grade [17]: 5 (Herbicidal rate of 90% or more (almost completely withered))
- H: barnyard grass, herbicidal effect grade [18]: 5 (Herbicidal rate of 90% or more (almost completely withered))

SMILES: COc1ccc2c(-c3c(O)c(C)nn(C)c3=O)c(-c3ccc4c(c3)OCCO4)sc2c1 [3-082]
- Herbicidal effect, B: Japanese bulrush [1]: 5 (Herbicidal rate of 90% or more (almost completely withered))
- M: velvetleaf, herbicidal effect grade [2]: 3 (Herbicidal rate of 40% or more and less than 70%)
- F: southern crabgrass, herbicidal effect grade [3]: 0 (Herbicidal rate of 5% or less (almost no effect))
- K: Italian ryegrass, herbicidal effect grade [4]: 3 (Herbicidal rate of 40% or more and less than 70%)
- G: green foxtail, herbicidal effect grade [5]: 0 (Herbicidal rate of 5% or less (almost no effect))
- J: blackgrass, herbicidal effect grade [6]: 0 (Herbicidal rate of 5% or less (almost no effect))
- herbicidal effect on rice flat sedge (E) [7]: 5 (Herbicidal rate of 90% or more (almost completely withered))
- Herbicidal effect, A: late watergrass [8]: 3 (Herbicidal rate of 40% or more and less than 70%)
- G: green foxtail, herbicidal effect grade [9]: 3 (Herbicidal rate of 40% or more and less than 70%)
- herbicidal effect on Chinese sprangletop (D) [10]: 3 (Herbicidal rate of 40% or more and less than 70%)
- L: windgrass, herbicidal effect grade [11]: 0 (Herbicidal rate of 5% or less (almost no effect))
- R: persian speedwell, herbicidal effect grade [12]: 5 (Herbicidal rate of 90% or more (almost completely withered))
- herbicidal effect on barnyard grass (H) [13]: 5 (Herbicidal rate of 90% or more (almost completely withered))
- N: redroot pigweed, herbicidal effect grade [14]: 3 (Herbicidal rate of 40% or more and less than 70%)
- N: redroot pigweed, herbicidal effect grade [15]: 5 (Herbicidal rate of 90% or more (almost completely withered))
- J: blackgrass, herbicidal effect grade [16]: 1 (Herbicidal rate of 5% or more and less than 20%)
- O: lambsquarters, herbicidal effect grade [17]: 5 (Herbicidal rate of 90% or more (almost completely withered))
- H: barnyard grass, herbicidal effect grade [18]: 3 (Herbicidal rate of 40% or more and less than 70%)
